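Grown in 96-well plates, cells were treated for 48 hours with each compound at five concentrations. Insufficient inhibition: endpoint recorded as highest concentration tested. GI50 is the concentration that inhibits growth by half.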 Activity calls are given as the source filed them. Cut-off read from the data, not from the text of the source: active = GI50 up to about 1.1 µM and inactive = higher.
Columns and labels:
Assay in all cases: DTP human tumour cell line panel, 48 h
[1] = tested on: 786-0
[2] = tested on: A498
[3] = tested on: A549
[4] = tested on: ACHN
[5] = tested on: BT-549
[6] = tested on: CAKI-1
[7] = tested on: CCRF-CEM
[8] = tested on: COLO 205
[9] = tested on: DU-145
[10] = tested on: EKVX
[11] = tested on: HCC 2998
[12] = tested on: HCT-116
[13] = tested on: HCT-15
[14] = tested on: HL-60
[15] = tested on: HOP-62
[16] = tested on: HOP-92
[17] = tested on: HT-29
[18] = tested on: Hs-578T
[19] = tested on: IGROV-1
[20] = tested on: K562
[21] = tested on: KM12
[22] = tested on: LOX IMVI
[23] = tested on: M14
[24] = tested on: MCF7
[25] = tested on: MDA-MB-231
[26] = tested on: MDA-MB-435
[27] = tested on: MDA-N
[28] = tested on: MOLT-4
[29] = tested on: Malme-3M
[30] = tested on: NCI-H226
[31] = tested on: NCI-H23
[32] = tested on: NCI-H460
[33] = tested on: NCI-H522
[34] = tested on: NCI/ADR-RES
[35] = tested on: OVCAR-3
[36] = tested on: OVCAR-4
[37] = tested on: OVCAR-5
[38] = tested on: OVCAR-8
[39] = tested on: PC-3
[40] = tested on: RPMI-8226
[41] = tested on: RXF 393
[42] = tested on: SF-268
[43] = tested on: SF-295
[44] = tested on: SF-539
[45] = tested on: SK-MEL-28
[46] = tested on: SK-MEL-2
[47] = tested on: SK-MEL-5
[48] = tested on: SK-OV-3
[49] = tested on: SN12C
[50] = tested on: SNB-19
[51] = tested on: SNB-75
[52] = tested on: SR
[53] = tested on: SW-620
[54] = tested on: T47D
[55] = tested on: TK-10
[56] = tested on: U-251
[57] = tested on: UACC-257
[58] = tested on: UACC-62
[59] = tested on: UO-31

Measured: GI50

Oc1ccccc1/C=N/c1nc2cc3sc(/N=C/c4ccccc4O)nc3cc2s1
19200 nM: [13]
active: [28] 889 nM
inactive: [1] > 81100 nM | [2] 26300 nM | [3] 6980 nM | [4] 46300 nM | [5] > 61800 nM | [6] 37200 nM | [7] 4740 nM | [8] 3300 nM | [9] > 48600 nM | [10] 51400 nM | [11] > 100000 nM | [12] 38900 nM | [14] 4440 nM | [15] > 80400 nM | [16] > 100000 nM | [17] 26200 nM | [18] 21500 nM | [19] 60000 nM | [20] 67300 nM | [21] > 66800 nM | [22] 34200 nM | [23] 97100 nM | [24] 12500 nM | [25] > 100000 nM | [26] > 95900 nM | [27] > 100000 nM | [29] > 100000 nM | [30] 26400 nM | [31] 6210 nM | [32] 4610 nM | [33] 9770 nM | [34] > 100000 nM | [35] > 100000 nM | [36] 69700 nM | [37] > 64700 nM | [38] > 100000 nM | [39] > 89300 nM | [40] > 35300 nM | [41] > 32700 nM | [42] 50900 nM | [43] > 54300 nM | [44] > 85500 nM | [45] > 100000 nM | [46] > 100000 nM | [47] > 47900 nM | [48] > 89300 nM | [49] > 60500 nM | [50] > 100000 nM | [51] > 78000 nM | [52] 2630 nM | [53] 20700 nM | [54] > 61100 nM | [55] > 86900 nM | [56] > 70500 nM | [57] > 100000 nM | [58] > 100000 nM | [59] > 35900 nM

CCN(CC)CCN1CCN=c2c3cc(OC)ccc3n3cnc4ccc1c2c43
211 nM: [13]
active: [1] 272 nM | [2] 746 nM | [3] 425 nM | [4] 339 nM | [6] 621 nM | [7] 218 nM | [8] 362 nM | [9] 700 nM | [10] 1010 nM | [11] 585 nM | [12] 300 nM | [14] 430 nM | [15] 979 nM | [17] 85.9 nM | [19] 357 nM | [20] 200 nM | [21] 367 nM | [22] 311 nM | [23] 719 nM | [24] 171 nM | [25] 483 nM | [26] 522 nM | [27] 490 nM | [28] 38.5 nM | [31] 713 nM | [32] 199 nM | [34] 475 nM | [35] 946 nM | [36] 274 nM | [37] 736 nM | [38] 318 nM | [39] 391 nM | [40] 305 nM | [41] 292 nM | [42] 466 nM | [43] 548 nM | [44] 323 nM | [46] 587 nM | [49] 429 nM | [50] 481 nM | [51] 714 nM | [52] 174 nM | [53] 45.6 nM | [55] 1070 nM | [56] 789 nM
inactive: [5] 1270 nM | [16] 1120 nM | [18] 1630 nM | [29] 1220 nM | [30] 1540 nM | [33] 1490 nM | [45] 1500 nM | [47] 1400 nM | [48] 1600 nM | [54] 5520 nM | [57] 1290 nM | [58] 1710 nM | [59] 1410 nM

Oc1cc(-c2cccc(OCc3ccccc3)c2)nc2cc3c(cc12)OCO3
active: [1] 374 nM | [2] 256 nM | [3] 871 nM | [5] 469 nM | [6] 673 nM | [7] 274 nM | [9] 644 nM | [10] 378 nM | [11] 298 nM | [12] 346 nM | [14] 93.5 nM | [15] 440 nM | [16] 578 nM | [18] 303 nM | [19] 1090 nM | [20] 235 nM | [21] 491 nM | [22] 269 nM | [23] 311 nM | [25] 605 nM | [26] 90.2 nM | [27] 106 nM | [28] 334 nM | [29] 621 nM | [30] 455 nM | [31] 750 nM | [32] 292 nM | [33] 268 nM | [34] 226 nM | [35] 304 nM | [38] 339 nM | [39] 327 nM | [40] 303 nM | [41] 330 nM | [43] 630 nM | [44] 252 nM | [45] 632 nM | [46] 301 nM | [47] 247 nM | [48] 342 nM | [49] 378 nM | [50] 423 nM | [51] 1050 nM | [52] 397 nM | [53] 303 nM | [56] 245 nM | [58] 370 nM | [59] 502 nM
376 nM: [13]
inactive: [4] 3710 nM | [8] 1310 nM | [17] 2010 nM | [24] 1910 nM | [36] 2810 nM | [37] 3400 nM | [42] 8340 nM | [54] > 52000 nM | [55] 2320 nM | [57] 14700 nM
